Measurements: article PMC12472947 (Pharmaceuticals, 2025)
“And” between values parts separate entries of the source, which are not always exact repeats. Equal values may be shown once. “Also recorded” adds a separate entry of the source. Read-outs that look alike come from different tables or passages of the source. Marks after values point to notes of the source that are not given here.

Columns and labels:
human AChE [hAChE] = human AChE [hAChE] (Homo sapiens, UniProt P22303); experiment: biochemical; conditions: for IC50: Human AChE, Ellman method, read-out: IC50(nM) ± SD AChE (hAChE) (converted); for SI: SI = EqBChE IC50/hAChE
Chain of human AChE [hAChE] (P22303 32-614): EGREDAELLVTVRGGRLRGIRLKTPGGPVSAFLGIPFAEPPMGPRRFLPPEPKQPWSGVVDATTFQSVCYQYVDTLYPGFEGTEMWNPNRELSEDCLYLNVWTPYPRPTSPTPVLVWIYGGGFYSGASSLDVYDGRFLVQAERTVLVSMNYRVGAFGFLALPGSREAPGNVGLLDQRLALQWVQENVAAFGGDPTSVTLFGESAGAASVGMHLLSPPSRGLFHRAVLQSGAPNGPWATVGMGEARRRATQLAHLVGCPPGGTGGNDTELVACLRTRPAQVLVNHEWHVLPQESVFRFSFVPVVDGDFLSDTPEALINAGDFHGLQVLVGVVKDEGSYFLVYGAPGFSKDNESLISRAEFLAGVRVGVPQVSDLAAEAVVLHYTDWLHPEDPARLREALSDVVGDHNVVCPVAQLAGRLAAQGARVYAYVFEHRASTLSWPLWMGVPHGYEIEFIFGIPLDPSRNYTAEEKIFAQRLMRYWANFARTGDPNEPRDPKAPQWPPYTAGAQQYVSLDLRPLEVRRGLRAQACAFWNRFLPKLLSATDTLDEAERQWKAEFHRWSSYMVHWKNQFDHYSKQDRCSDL

[1] = Cytotoxicity (neurotoxicity) MTT assay in SH-SY5Y; format: cell-based; conditions: human, SH-SY5Y neuroblastoma cells; for viability at 24 h, 12.5 µM / viability at 24 h, 25 µM / viability at 24 h, 50 µM: MTT, read-out: Cell viability (% of control); for viability at 24 h: up to 25 μM, read-out: cell viability
Procedure: (§1) The immortalized human neuroblastoma cell line (SH-SY5Y–ATCC: CRL-2226; BCRJ:0223) was used to evaluate cytotoxicity. The cell line was cultured in Dulbecco’s Modified Eagle’s Medium and F12 in a 1:1 ratio (DMEM:F12; Sigma-Aldrich code 0697, Brazil) supplemented with 10% fetal bovine serum (FBS; Sigma-Aldrich code F2442, Brazil) and 1% streptomycin/penicillin (10,000 U/mL and 10,000 μg/mL, respectively; Nova Biotecnologia code BR30110-01, Cotia, SP, Brazil) and incubated at 37 °C with 5% CO2. The culture medium was replaced every 48 h, until the cells reached semi-confluence (≥70%). Cell passage was carried out with the aid of trypsin-EDTA/0.25% solution (Nova Biotecnologia, Brazil) and divided between 5 or 8 mL culture volumes depending on the respective bottles (25 or 75 cm^2) used.
(§2) The in vitro cytotoxicity assay evaluated cell viability using the [3-(4,5-dimethylthiazol-2yl)-2,5-diphenyl tetrazolium] bromide (MTT) reduction assay. Cells were seeded at an initial density of 5.0 × 10^4 cells/well in 96-well plates in a volume of 200 µL. […] In the next step, the culture medium was replaced by the sample solution previously described (Section 3.4.2). After 24 h exposure, the medium was replaced with 100 μL of MTT in phosphate-buffer saline (PBS), pH 7.4, at a concentration of 0.5 mg.mL^−1/well and the plates were incubated for an additional 3 h. Then, the MTT solution was removed, and 100 μL of DMSO was added to solubilize the formazan crystals. The cell viability was measured by absorbance at 562 nm using a Microplate Absorbance Reader (Kasuaki, Brazil). All concentrations tested were evaluated in nine replicates (n = 9). The variation in results was observed using ANOVA followed by Tukey’s test for multiple comparisons through GraphPad Prism v5^TM with a significance level of p < 0.05.

[2] = test system: SH-SY5Y neuroblastoma cells; experiment: Cytotoxicity (neurotoxicity) MTT assay in SH-SY5Y; format: cell-based; conditions: up to 50 µM
Procedure: as §1, §2

[3] = biological target: electric eel acetylcholinesterase (EeAChE) (Electrophorus electricus, UniProt O42275); experiment: Enzymatic kinetic study, EeAChE; format: biochemical; conditions: AChE
Chain of electric eel acetylcholinesterase (EeAChE) (O42275 24-633): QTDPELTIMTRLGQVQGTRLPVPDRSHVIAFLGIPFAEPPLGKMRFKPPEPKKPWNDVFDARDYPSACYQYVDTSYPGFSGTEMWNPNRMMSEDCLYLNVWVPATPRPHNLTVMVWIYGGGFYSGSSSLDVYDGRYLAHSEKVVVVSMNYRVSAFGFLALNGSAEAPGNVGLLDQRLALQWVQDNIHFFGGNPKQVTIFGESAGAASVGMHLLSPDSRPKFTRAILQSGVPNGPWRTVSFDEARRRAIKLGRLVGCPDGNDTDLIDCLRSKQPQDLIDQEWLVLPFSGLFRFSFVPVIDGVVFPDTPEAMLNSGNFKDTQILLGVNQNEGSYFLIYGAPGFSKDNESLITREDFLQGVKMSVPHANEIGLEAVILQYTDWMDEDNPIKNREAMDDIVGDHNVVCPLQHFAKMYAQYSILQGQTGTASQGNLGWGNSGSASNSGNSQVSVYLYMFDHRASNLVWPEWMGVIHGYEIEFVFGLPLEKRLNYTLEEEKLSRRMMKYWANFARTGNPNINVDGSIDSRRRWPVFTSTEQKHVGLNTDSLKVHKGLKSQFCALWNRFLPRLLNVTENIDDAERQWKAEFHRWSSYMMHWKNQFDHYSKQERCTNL
Procedure: (§3) The enzymatic kinetics of cholinesterase inhibition were determined according to an adapted Ellman’s method. All of the solutions were prepared at 20 °C in 0.02 M Tris-HCl buffer (pH 7.5; ionic strength ~0.02 M), stock solutions of test compounds were prepared in DMSO:EtOH (7:3) mixture (20 mM), and the experiment was conducted in triplicate. To a flat-bottom 96-well transparent plate (path length of 0.6 cm) were added 150 μL of treatment solutions with inhibitors 1a, 1h, and 1j at two different concentrations (Table S1) distributed in eight sets of triplicate each. Eight sets of untreated triplicates were used as a negative control. Following, there were added 60 μL of 5,5′-Dithiobis(2-nitrobenzoic acid) (DTNB, Ellman’s reagent) at 1.1 mM and 30 μL of electric eel acetylcholinesterase (EeAChE) or equine serum butyrylcholinesterase (EqBuChE) at 0.20 U/mL in the presence of 1 mg/mL bovine serum albumin (BSA). […] Ki, Ki’ (competitive and noncompetitive inhibition constants, respectively), Km (Michaelis-Menten constant), and Vmax values were calculated with Graphpad Prism v7.0 using the non-linear regression models for enzyme kinetics inhibition and enzyme kinetics–substrate vs. velocity.

[4] = biological target: T1, equine serum butyrylcholinesterase (EqBuChE) (Equus caballus, UniProt P81908); experiment: Enzymatic kinetic study, EqBChE; format: biochemical; conditions: BChE
T1 construct: equine serum BChE [EqBChE]; from tissue; host or cells: equine serum
T1 sequence (P81908 whole entry): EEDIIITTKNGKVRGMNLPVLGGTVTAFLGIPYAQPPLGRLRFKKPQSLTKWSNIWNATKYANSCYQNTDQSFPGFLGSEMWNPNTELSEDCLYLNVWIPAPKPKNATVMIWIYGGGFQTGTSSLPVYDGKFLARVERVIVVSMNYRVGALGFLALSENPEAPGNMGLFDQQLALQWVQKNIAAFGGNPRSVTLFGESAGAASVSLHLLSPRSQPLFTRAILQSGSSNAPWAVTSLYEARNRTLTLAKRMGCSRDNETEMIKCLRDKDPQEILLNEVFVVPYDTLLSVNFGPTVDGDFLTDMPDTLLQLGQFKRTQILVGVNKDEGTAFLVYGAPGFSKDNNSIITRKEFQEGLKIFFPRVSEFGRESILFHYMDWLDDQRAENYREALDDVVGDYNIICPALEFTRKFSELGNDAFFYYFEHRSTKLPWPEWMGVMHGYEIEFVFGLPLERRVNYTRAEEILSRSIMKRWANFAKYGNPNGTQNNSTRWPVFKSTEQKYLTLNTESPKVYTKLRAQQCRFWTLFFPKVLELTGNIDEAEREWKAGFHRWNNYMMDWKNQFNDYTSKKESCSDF
Procedure: as §3

[5] = enzyme-substrate complex, global non-linear regression (Table 2)
[6] = free enzyme (Table S3), read-out: Ki ± SE (95% CI)
[7] = global non-linear regression, mixed inhibition (Table S3)

O=c1oc2cc(OCCCN3CCCCC3)ccc2cc1-c1cn(Cc2ccccc2)nn1 [Compound 1q, 3-(1-Benzyl-1H-1,2,3-triazol-4-yl)-7-(3-(piperidin-1-yl)propoxy)-2H-chromen-2-one]
IC50 (human AChE [hAChE]): 1410 nM | SI (human AChE [hAChE]): ~2 ^e,f | viability at 24 h, 12.5 µM [1]: 99% | viability at 24 h, 25 µM [1]: 105% | viability at 24 h, 50 µM [1]: 84% | viability at 24 h [1]: ≥ 70% | neurotoxicity [2]: non-neurotoxic

O=c1oc2cc(OCCN3CCCCC3)ccc2cc1-c1cn(Cc2ccccc2)nn1 [Compound 1h, 3-(1-Benzyl-1H-1,2,3-triazol-4-yl)-7-(2-(piperidin-1-yl)ethoxy)-2H-chromen-2-one]
IC50 (human AChE [hAChE]): 115 nM | SI (human AChE [hAChE]): 33 | inhibition mechanism ([3]; Lineweaver-Burk plots): mixed-type inhibition | Ki’ (nM) ± SE [3, 5]: 7.17 ± 1.48 nM | Ki [3, 6]: 4.73 ± 0.878 nM | Ki ([3]; free enzyme, global non-linear regression to mixed-inhibition equation (Table 2), read-out: Ki (nM) ± SE): 4.73 ± 0.88 nM | α ± SE (95% CI) [3, 7]: 1.516 ± 0.3136 | Vmax ± SD ([3]; inhibitor 0.005 μM): 4.45 ± 0.02231 1 × 10^3 nM/min and 4.45 ± 0.02 1 × 10^3 nM/min | Vmax ± SD ([3]; inhibitor 0.007 μM): 3.19 ± 0.0981 1 × 10^3 nM/min and 3.19 ± 0.010 1 × 10^3 nM/min | inhibition mechanism ([4]; Lineweaver-Burk plots): mixed-type inhibition | Ki ([4]; competitive inhibition constant (Table S2), read-out: Ki (nM) ± SD): 980 ± 24 nM | Ki’ (nM) ± SE [4, 5]: 4830 ± 620 nM | Ki [4, 6]: 1250 ± 151 nM | Ki ([4]; free enzyme, global non-linear regression (Table 2), read-out: Ki (nM) ± SE): 1250 ± 150 nM | α ± SE (95% CI) [4, 7]: 3.852 ± 0.4265 | Vmax ± SD ([4]; inhibitor 2.8 μM): 3.62 ± 0.1358 1 × 10^3 nM/min and 3.62 ± 0.14 1 × 10^3 nM/min | Vmax ± SD ([4]; inhibitor 4.8 μM): 3.40 ± 0.0349 1 × 10^3 nM/min and 3.40 ± 0.03 1 × 10^3 nM/min | viability at 24 h, 12.5 µM [1]: 121% | viability at 24 h, 25 µM [1]: 121% | viability at 24 h, 50 µM [1]: 111% | viability at 24 h [1]: ≥ 70% | neurotoxicity [2]: non-neurotoxic; also recorded: no neurotoxicity
